Five molecules from paper PMC3361238, “The Effects of Addition of Mononucleotides on Sma nuc Endonuclease Activity” (The Scientific World Journal, 2012) can be followed below.

Test [1] concerns the target T1, Sma nuc endonuclease (isoform Sm2) (Serratia marcescens, UniProt P13717).
T1 construct: gene nucA; Sm2 known as the full 245-residue mature form (signal peptide removed)
T1 sequence (P13717 22-266): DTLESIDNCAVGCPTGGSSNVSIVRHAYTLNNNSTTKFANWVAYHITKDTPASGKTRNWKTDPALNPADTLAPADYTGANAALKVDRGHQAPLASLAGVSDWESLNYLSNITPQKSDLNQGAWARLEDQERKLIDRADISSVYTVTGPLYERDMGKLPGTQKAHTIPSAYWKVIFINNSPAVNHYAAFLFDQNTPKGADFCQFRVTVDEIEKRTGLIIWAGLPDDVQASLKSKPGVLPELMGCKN
Description: hyperchromic RNA hydrolysis assay at […] nm; Cornish-Bowden plot S/V against [I]. The class given is biochemical. The following applies: RNA substrate 0.03-0.18 mM, 50 mM Tris-HCl pH 8.5, MgSO4 1.2-7.2 mM, 37 °C; uncompetitive.

Test [2] has as its target T1, Sma nuc endonuclease (isoform Sm2). Description: hyperchromic RNA hydrolysis assay at […] nm; secondary double reciprocal plot of Lineweaver-Burk segments. Format: biochemical.

By Ki is commonly meant a dissociation constant, usually derived from enzyme kinetics or from competition with a known ligand. For the molecule `Nc1ccn([C@@H]2O[C@H](COP(=O)(O)O)[C@@H](O)[C@H]2O)c(=O)n1` [CMP], in test [1], the “Ki” value was 86.2 µM.

Take `Nc1ncnc2c1ncn2[C@@H]1O[C@H](COP(=O)(O)O)[C@@H](O)[C@H]1O` [AMP]: affinity in test [2] was put at a Ki of 76.5 µM.

For `Nc1nc2c(ncn2[C@@H]2O[C@H](COP(=O)(O)O)[C@@H](O)[C@H]2O)c(=O)[nH]1` [GMP], the inhibition constant (Ki) in test [1] amounted to 229 µM.

As for `O=c1ccn([C@@H]2O[C@H](COP(=O)(O)O)[C@@H](O)[C@H]2O)c(=O)[nH]1` [UMP], in test [1], the “Ki” value was found to be 310.7 µM. The Ki values of the last two molecules are within 1.5-fold of each other.

For the molecule `Nc1ncnc2c1ncn2[C@H]1C[C@H](O)[C@@H](COP(=O)(O)O)O1` [dAMP], in test [2], the Ki was 60 µM.
